One molecule from patent US10626368B2, “Method for inducing cerebral cortex neurons” (KYOTO UNIVERSITY, priority 2015, dated 2020) can be followed below.

The subject of test [1] is ES cells or the iPS cells. Description: qPCR of marker gene expression in cells differentiated with added inhibitors. The test is classed as cell-based, human. As to conditions: 10 nM C59, spheres, qPCR. An excerpt:
Human ES cells (KhES-1) were obtained from Institute for Frontier Medical Sciences, Kyoto University (Suemori H, et al. Biochem Biophys Res Commun. 345: 926-32, 2006). The human iPS cells 404C2 are cells obtained by introducing Oct3/4, Sox2, Klf4, L-MYC, LIN28 and p53shRNA into human fibroblasts, using an episomal vector, and these cells were obtained from Professor Yamanaka et al. in Kyoto University (Okita, et al, Nat Methods. 8: 409-412, 2011). The human iPS cells 836B1 are cells obtained by introducing Oct3/4, Sox2, Klf4, L-MYC, LIN28, GLIS1 and p53shRNA into human fibroblasts, using an episomal vector, and these cells were obtained from Professor Yamanaka et al. in Kyoto University. The ES cells and the iPS cells were cultured on SNL cells (Takahashi K, et al, Cell. 131: 861-872, 2007).
On the day before induction of differentiation, in order to separate the ES cells or the iPS cells, which had been cultured in a culture medium to which 10 μM Y-27632 (WAKO) had been added, from the SNL feeder cells, the SNL cells were removed with CTK and the remaining cells were then dissociated using Accumax (ICT). The cells were transferred on a 96-well plate (Lipidure-coat 96-well plate (NOF Corporation)) in an amount of 9×10^3 cells per well. Thereafter, the cells were subjected to a suspension culture in DMEM/F12 (WAKO) comprising 50 μM Y-27632 (WAKO), 10 μM SB43152 (Sigma), 10 ng/ml bFGF (Invitrogen), various types of Wnt inhibitors (DKK1 (R & D, 500 ng/ml), C59 (Cellagen Technology, 2-10 nM), XAV (Stemgent, 500 nM-2 μM) or IWP4 (Stemgent, 500 nM-2.5 μM)), LDN193189 (Stemgent), KSR (Invitrogen), 0.1 mM MEM non-essential amino acid (Invitrogen), 0.1 mM 2-mercaptoethanol (WAKO), and 2 mM L-Gln (Invitrogen) (initiation of differentiation induction, day 0). […] Three days later, the medium was exchanged with DMEM/F12 (WAKO) comprising various types of Wnt inhibitors (DKK1, C59, XAV or IWP4 (Stemgent)), LDN193189 (Stemgent), KSR (Invitrogen), 0.1 mM MEM non-essential amino acid (Invitrogen), 0.1 mM 2-mercaptoethanol (WAKO), and 2 mM L-Gln (Invitrogen) (day 6). Thereafter, the medium was exchanged with a fresh one of the same type every 3 days, and the culture was carried out for 18 days after the initiation of differentiation induction (day 18).
The obtained cell mass was transferred on a dish (24-well plate (BD)) coated with 50 μg/ml ornithine (Sigma), 5 μg/ml laminin (Sigma) and 5 μg/ml fibronectin (BD Bioscience Pharmingen), and the culture was continued in Neurobasal (Invitrogen), to which B27 (Invitrogen), 2 mM L-Gln, and 10 units/ml penicillin and streptomycin (Invitrogen) had been added. The culture was carried out for, at maximum, 46 days after the initiation of differentiation induction. It is to be noted that the medium was exchanged with a fresh one every 2 or 3 days.
In the above-described induction method, 500 ng/ml DKK1, 2 nM C59, 500 nM XAV or 500 nM IWP4 was added as a Wnt inhibitor to the cells, and the obtained mixture was then cultured for 18 days. Thereafter, the expression levels of Six3 (forebrain marker), Sox1 (neuroectodermal marker), Foxg1 (cerebral cortex-forming factor), Lhx2 (cerebral cortex-forming factor), Emx2 (forebrain back portion marker), CoupTF1 (forebrain back portion marker) and Pax6 (forebrain front portion marker) genes in the cultured cells were measured by a qPCR method (FIG. 2).
The concentration of C59 used as a Wnt inhibitor in the above-described induction method was examined. Specifically, without using C59, or using 2.5 nM, 10 nM and 1 μM C59, the cells were cultured for 18 days. […] The obtained spheres were subjected to immunostaining of using an antibody against Pax6. […] Furthermore, the expression levels of the Foxg1, Lhx2, Emx2 and CoupTF1 genes in the obtained spheres were measured according to a qPCR method (FIG. 4B). As a result, the expression level of CoupTF1 was low and the expression levels of Lhx2 and Foxg1 were high in the case of using 10 nM C59. […]
For orientation: Real-time PCR tracks product formation cycle by cycle.

The subject of the next test is iPS cells (836B1). Description: Immunostaining for CoupTF1 and Ctip2 on day 46, suspension culture with various WNT inhibitors (Example 4). Type of test: cell-based, human. As to conditions: 50 nM C59, 100 nM LGK-974, 1 μM ICG-001, day 46; C59 and LGK-974 compared with each other. As for the experimental part:
On the day before induction of differentiation, in order to separate the iPS cells (836B1), which had been cultured in a culture medium to which 10 μM Y-27632 had been added, from the SNL feeder cells, the SNL cells were removed with CTK and the remaining cells were then dissociated using Accumax. The cells were transferred on a 96-well plate (Lipidure-coat 96-well plate) in an amount of 9×10^3 cells per well. Thereafter, the cells were subjected to a suspension culture in DMEM/F12 comprising 50 μM Y-27632, 10 μM SB43152, 10 ng/ml bFGF, various types of Wnt inhibitors (50 nM C59, 100 nM LGK-974, or 1 μM ICG-001 (Cellagen Technology)), 100 nM LDN193189, 10% KSR, 0.1 mM MEM non-essential amino acid, 0.1 mM 2-mercaptoethanol, and 2 mM L-Gln (initiation of differentiation induction, day 0). […] Three days later, the medium was exchanged with DMEM/F12 comprising various types of WNT inhibitors (C59, LGK-974, or ICG-001), 100 nM LDN193189, 10% KSR, 0.1 mM MEM non-essential amino acid, 0.1 mM 2-mercaptoethanol, and 2 mM L-Gln (day 6). Thereafter, the medium was exchanged with a fresh one of the same type every 3 days, and the culture was carried out for 18 days after the initiation of differentiation induction (day 18).
A half of the medium on day 18 was removed by aspiration, and thereafter, Neurobasal, to which B27, 2 mM L-Gln, and 10 units/ml penicillin and streptomycin had been added, was added in the same amount as the removed medium to the remaining medium. Likewise, a half amount of the medium was exchanged on day 21. On day 24, the cells were transferred on a petri dish, and thereafter, a half of the medium was exchanged every 3 or 4 days. On day 46, the obtained cells were immunostained using antibodies against CoupTF1 and Ctip2. […] From the aforementioned results, it was confirmed that nerve cells existing in the desired corticocerebral motor area can be induced even by utilizing the WNT inhibitor LGK-974 having a similar action to C59.

As for `Cc1cc(-c2ccc(CC(=O)Nc3ccc(-c4cccnc4)cc3)cc2)ccn1` [C59], in test [1], the “expression level of CoupTF1” value is on record as “low”, the “expression level of Foxg1” value is reported as “high” and the “expression level of Lhx2” value was “high”. Also, the “efficiency of inducing CoupTF1-negative Ctip2-positive cells” value with iPS cells (836B1) is on record as “not found a large difference”.
